Columns and labels:
Format in all cases: cell-based
[1] = molecular target: T1, AlaP (Bacillus subtilis, UniProt O34618); assay: radiolabelled substrate uptake, wild type against deletion strain; conditions: labelled compound, 30 mM beta-alanine, C-Glc minimal medium, intact cells
T1 construct: gene ytnA; native full-length APC superfamily permease in intact B. subtilis cells
T1 sequence (O34618 1-463): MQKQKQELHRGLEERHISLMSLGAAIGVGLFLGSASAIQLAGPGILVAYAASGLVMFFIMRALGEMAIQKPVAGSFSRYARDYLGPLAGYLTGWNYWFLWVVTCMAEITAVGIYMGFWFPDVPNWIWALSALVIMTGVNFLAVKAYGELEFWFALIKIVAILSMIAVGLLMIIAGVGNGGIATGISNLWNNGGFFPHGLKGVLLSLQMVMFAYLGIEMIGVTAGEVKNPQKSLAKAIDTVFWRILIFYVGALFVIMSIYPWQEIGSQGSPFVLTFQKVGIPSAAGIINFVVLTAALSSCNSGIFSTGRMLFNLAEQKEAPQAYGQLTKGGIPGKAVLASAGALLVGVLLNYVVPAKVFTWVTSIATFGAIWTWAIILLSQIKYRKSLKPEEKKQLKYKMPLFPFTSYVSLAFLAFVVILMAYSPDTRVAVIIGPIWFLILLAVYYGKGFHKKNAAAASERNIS

[2] = molecular target: T2, AimA (Bacillus subtilis, UniProt Q45577); assay: as above; conditions: labelled compound, 30 mM beta-alanine, C-Glc minimal medium, intact cells
T2 construct: native full-length APC superfamily permease in intact B. subtilis cells; wild type 168 against deltaaimA (GP3590)
T2 sequence (Q45577 1-539): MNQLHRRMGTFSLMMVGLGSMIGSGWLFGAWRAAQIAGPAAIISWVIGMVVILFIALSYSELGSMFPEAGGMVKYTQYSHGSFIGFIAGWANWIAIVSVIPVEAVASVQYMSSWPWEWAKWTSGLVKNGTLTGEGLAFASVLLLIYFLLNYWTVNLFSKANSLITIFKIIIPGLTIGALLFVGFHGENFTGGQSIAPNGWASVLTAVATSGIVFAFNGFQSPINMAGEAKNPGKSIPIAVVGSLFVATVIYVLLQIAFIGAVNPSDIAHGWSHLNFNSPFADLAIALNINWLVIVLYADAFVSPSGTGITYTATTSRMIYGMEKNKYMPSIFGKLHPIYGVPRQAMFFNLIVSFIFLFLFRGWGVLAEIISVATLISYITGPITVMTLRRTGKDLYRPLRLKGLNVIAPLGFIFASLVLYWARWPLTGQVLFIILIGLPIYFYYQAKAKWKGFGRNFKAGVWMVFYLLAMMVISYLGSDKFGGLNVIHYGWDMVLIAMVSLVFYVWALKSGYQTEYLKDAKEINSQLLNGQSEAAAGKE

[3] = molecular target: T3, AexA (YdeD) (Bacillus subtilis, UniProt P96661); assay: intracellular accumulation of radiolabelled substrate, overexpressing against deletion strain; conditions: labelled compound; 30 mM beta-alanine; C-Glc minimal medium; export; intact cells
T3 construct: native full-length EamA family exporter in intact B. subtilis cells; chromosomal gene overexpressed by aerA Y179D (GP4117) against aerA Y179D deltaaexA (GP3958)
T3 sequence (P96661 1-319): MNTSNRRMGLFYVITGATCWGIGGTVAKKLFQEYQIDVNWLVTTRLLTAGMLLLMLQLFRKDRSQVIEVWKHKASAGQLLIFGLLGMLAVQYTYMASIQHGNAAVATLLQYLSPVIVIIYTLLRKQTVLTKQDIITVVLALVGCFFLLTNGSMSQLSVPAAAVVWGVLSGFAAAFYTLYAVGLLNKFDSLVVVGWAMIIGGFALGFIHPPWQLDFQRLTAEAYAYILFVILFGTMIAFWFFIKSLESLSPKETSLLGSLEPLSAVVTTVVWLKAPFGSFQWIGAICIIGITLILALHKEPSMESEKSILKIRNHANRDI

NCCC(=O)O [β-alanine]
radiolabelled substrate uptake, wild type against deletion strain [1]: a severe reduction was observed in the alaP and aimA mutants | radiolabelled substrate uptake, wild type against deletion strain [2]: a severe reduction was observed in the alaP and aimA mutants | intracellular accumulation of radiolabelled substrate, overexpressing against de [3]: clearly demonstrates that AexA indeed acts as an exporter for β-alanine

Source: article PMC11005379, “Control of three-carbon amino acid homeostasis by promiscuous importers and exporters in Bacillus subtilis: role of the “sleeping beauty” amino acid exporters” (mBio, 2024)
